# Source: patent publication US20230000842A1, “METHODS OF TREATING CARTILAGE DISORDERS THROUGH INHIBITION OF CLK AND DYRK” (SAMUMED, LLC, priority 2019, published 2023)
# Legend:
# [1] = system: CLK mediated phosphorylation of SRSF4, 5, 6; test: Western blot of phospho-SRSF in hMSCs and human chondrocytes; format: cell-based; conditions: 1 hr, vs DMSO
# Procedure: (§1) Cells were plated at 300,000 cells per well in a 6-well plate and following an overnight incubation, treated with DMSO (vehicle control) or indicated compounds and incubated at 37° C. and 5% CO2 for the indicated times. Following treatment, cells were trypsinized and pelleted by centrifugation and washed with PBS. Total protein from the cell pellet was extracted or for fractionation, protein was fractionated into cytoplasmic and nuclear fractions using a Nuclear and Cytoplasmic Extraction Reagents (NE-PER™) kit containing Halt™ protease and phosphatase inhibitors (Thermo Fisher). Protein concentrations were quantified using the Pierce Micro BCA protein assay kit (Thermo Fisher). […] Blots were blocked with non-fat dry milk. Primary antibodies were incubated overnight at 4° C. β-actin and Lamin B1 were used as loading controls (Supplementary Table S2 for primary antibodies). Mouse and rabbit horseradish peroxidase (HRP)-conjugated secondary antibodies were diluted in 5% blocking buffer in TBS-T. Protein-antibody complexes were detected by chemiluminescence using the SuperSignal West Femto Chemiluminescent Substrate (Thermo Fisher) and images were captured with a UVP ChemiDocIt2 camera system (Fisher Scientific, Hampton, N.H.).
# [2] = system: nuclear speckles in hMSCs and chondrocytes; test: Nuclear speckles assay (phospho-SC35 immunofluorescence); format: cell-based, human; conditions: 30 nM, 100 nM, 6 hrs, compared to DMSO
# Description: Cells were stained with phospho-SC35 antibody (green) or DAPI nuclear stain (blue).
# After approximately 6 hrs, cells were fixed and stained with a phospho-SC35 antibody (Santa Cruz Biotechnology), followed by an Alexa-Fluor 488 secondary antibody (Thermo Fisher) and DAPI (Thermo Fisher). Cells were imaged at 100× magnification using the EVOS FL (Life Technologies, Carlsbad, Calif.).
# [3] = system: FOXO1; test: Western blot and immunofluorescence of FOXO1 with IL1-β; format: cell-based, human; conditions: hMSCs and chondrocytes; in the presence of IL-1β; compared to DMSO
# Procedure: Cells were stained with anti-FOXO1 antibody (red) and DAPI nuclear stain (blue).
# as §1
# [4] = system: SIRT1 (pSer27, pSer47); test: Western blot of phospho-SIRT1 with IL1-β; format: cell-based, human; conditions: hMSCs and chondrocytes; in the presence of IL-1β; compared to DMSO
# Procedure: as §1
# [5] = system: Wnt pathway gene expression in hMSCs; test: Nanostring nCounter Wnt Pathways panel in hMSCs; format: cell-based, human; conditions: >2-fold change, p<0.05, FDR corrected
# Procedure: FIGS. 2D and 2E depict gene expression changes of selected genes from FIG. 2C by qRT-PCR (n=3, Mean±95% CI, *p<0.05, **p<0.01, ***p<0.001, one-way ANOVA). […] Downregulation of AXIN2, TCF7, LRP5, BAMBI, NKD1, PAI-1, LRP6, FZD6, FZD7, PITX2, ERBB2, and CTGF gene expression and increased levels of Wnt pathway inhibitors SFRP2 and DACT1 were determined by qPCR.
# Fifty nanograms of RNA was hybridized with Tagsets and probe pools from the nCounter® Vantage 3D™ Wnt Pathways Panel (NanoString Technologies) for 16 hrs at 67° C. Hybridized samples were ran on a nCounter® SPRINT Profiler (NanoString Technologies). Nanostring gene counts were normalized by the geometric mean of all housekeeping genes by nSolver (v3.0). P-values from normalized counts were calculated by an independent t-test and adjusted by the false discovery rate (FDR) method (Benjamini & Hochberg) to correct for multiple comparisons using R (v3.4.2). Data was plotted using R (v3.4.2).
# [6] = system: NF-κB pathway gene expression in THP1 cells; test: qRT-PCR of NF-κB pathway components in THP1 cells stimulated with LPS; format: cell-based
# Procedure: Fold change relative to unstimulated control is shown (n=3, Mean±95% CI, *p<0.05, **p<0.01, ***p<0.001, one-way ANOVA).
# Total RNA was isolated using a RNAeasy kit (Qiagen) as per the manufacturer's protocol. cDNA was synthesized using the iScript cDNA Synthesis Kit (Bio-Rad). Quantitative real-time PCR was performed using the CFX384 (Bio-Rad) using gene specific SYBR-green or TaqMan™ primers. Relative gene expression was determined by normalizing to housekeeping genes using the ΔΔCt method. Data was collected from at least 3 replicates per assay.
# [7] = system: Wnt pathway activity (SW480 colon carcinoma cells stably expressing the Sp5-Luc reporter); test: Wnt pathway activity screening assay (Sp5-Luc reporter gene assay); conditions: Homo sapiens, SW480
compound,measurement,setting,value
CC(C)CC(=O)Nc1cncc(-c2ccc3[nH]nc(-c4nc5c(-c6cccc(F)c6)cncc5[nH]4)c3c2)c1 [compound 123],"CLK mediated phosphorylation of SRSF4, 5, 6",[1],dose-dependently inhibited
same,nuclear speckles (spliceosome modulation),[2],enlargement of nuclear speckles
same,phosphorylation of FOXO1,[3],dose-dependently inhibited
same,total FOXO1 protein levels and nuclear localization,[3],increases
same,"phosphorylation of SIRT1 (pSer27, pSer47)",[4],dose-dependently and more potently inhibited
same,number of Wnt pathway genes downregulated,[5],19 genes
same,number of Wnt pathway genes upregulated,[5],9 genes
same,"LPS-stimulated gene expression of NF-κB components (RELA, RELB)",[6],inhibited
same,"NF-κB inhibitors (NFKBIA, NFKBIB, IKKβ, IKKγ) expression",[6],without effects
same,"expression of NF-κB pathway genes (NFKB1, NFKB2, RELA, RELB and BCL3)",[6],inhibited
same,EC50,[7],3.4 nM
